Molecules are shown by their SMILES. ≈ marks a conversion by molar mass, not a printed value. Read-outs that look alike come from different tables or passages of the source.

Data set [1] concerns S. aureus ATCC 29213. Nature of the data set: Minimum inhibitory concentration (MIC) assay, broth microdilution, MSSA. In kind it is cell-based. The conditions noted are these: Staphylococcus aureus, Table I. The method, boiled down:
(§1)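 NCCLS broth microdilution in Mueller-Hinton II broth, two-fold dilutions giving 0.125–128 μg/mL final, inoculum ~1×10^6 cfu/mL. Plates incubated in ambient air, 37 °C, 18–24 h; MIC taken as lowest concentration preventing visible growth.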

Data set [2] deals with fluoroquinolone-resistant S. aureus ATCC 700699. Put plainly: Minimum inhibitory concentration (MIC) assay, broth microdilution, MRSA. In kind it is cell-based. The conditions noted are these: Staphylococcus aureus. The method, boiled down: as §1
In general terms: In broth dilution the organism is exposed to a series of concentrations in liquid medium.

Data set [3] concerns Hep2. Nature of the data set: Cell viability staining with Alamar Blue (compound cytotoxicity). In kind it is cell-based, human. The following applies: Table II, comparison of R2 acetyl vs cyano. The protocol:
To determine whether the microcidal effect observed against S. aureus and E. coli is specific to bacterial cells, compounds are screened for cell viability effects on several human cell types. Optimal cell density is first determined by plating cells in a 96-well plate standard sterile tissue culture plates in 100 μl media, 10% FBS at six cell densities from 500 cells/well to 15,000 cells/well. A cell free well containing only media is used as a control. Cells are incubated at 37° C. in a 5% CO2 incubator for 24 hours. 10% culture volume (10 ul) of Alamar Blue (Biosource, DAL1100, 100 mL) is then added. Cells are incubated at 37° C. in a 5% CO2 incubator and read in a Victor V plate reader, 544 nm excitation, 590 nm emission, at 3, 4, and 24 hours after the addition of Alamar Blue. The cell number vs. change in fluorescence is plotted to determine linearity of signal vs. cell number. The optimal density varies between 500-15,000 cells/well depending on the specific cell type. The optimal density is selected based on the highest number of cells that is still in the linear response range. Cells are plated at optimal cell density in a standard sterile tissue culture 96 well plate, and incubated at 37° C., O/N in a 5% CO2 incubator. 12 to 48 hours post-plating media is removed. The cells are washed 1 or 2 times with 1×PBS and replaced with fresh media containing the test compound in 1% DMSO. 24 to 72 hours after addition of compound, the media is removed, and the cells washed 1 to 2 times with 1×PBS. Fresh media containing 1/10 volume of Alamar Blue is then added. Plates are incubated 4 hours at 37° C. in a 5% CO2 incubator and read in a Victor V plate reader, 544 nm excitation, 590 nm emission. Compounds are diluted to 20 micromolar in 1% DMSO and media and screened in duplicate to obtain single concentration cytotoxicity data. Eight concentration points from 0.78 micromolar to 100 micromolar, run in duplicate, are used to determine cyclotoxicity CC50 values. Cells with 1% DMSO and media are used as a negative control, compounds having a known CC50 against a particular cell type are used as positive controls. The change in fluorescence vs. concentration of test compound is plotted to determine the cytotoxicity of the compound.
(In general: Resazurin is reduced to fluorescent resorufin, in cell work by metabolically active cells.)

The mark [4] stands for this setting: Table II, comparison of R2 acetyl vs cyano, read-out: MRSA.
Where [5] appears, read: fluoroquinolone-resistant S. aureus ATCC 700699, Table I, read-out: MRSA MIC.

As to `COc1c(N2CCCC(CN)C2)c(F)cc2c(=O)c3c(O)c(C#N)sc3n(C3CC3)c12` (centres unmarked) [Cmp 63, 7-(3-(aminomethyl)piperidin-1-yl)-9-cyclopropyl-6-fluoro-3-hydroxyl-8-methoxy-4-oxo-dihydrothieno[2,3-b] quinoline-2-carbonitrile], the MIC came out at 0.03 µg/mL (≈ 0.0678 µM) in data set [1], 0.13 µg/mL (≈ 0.294 µM) in data set [2] (setting [4]) and 0.13 µg/mL (≈ 0.294 µM) in data set [2] (setting [5]). The same molecule gave a Cytoxicity in data set [3] of 0.4 µM.

On to `COc1c(N2CCCC(CN)C2)c(F)cc2c(=O)c3c(O)c(C(C)=O)sc3n(C3CC3)c12` (centres unmarked) [Cmp 64, 2-acetyl-7-(3-(aminomethyl)piperidin-1-yl)-9-cyclopropyl-6-fluoro-3-hydroxyl-8-methoxythieno [2,3-b]quinolin-4(9H)-one], for which the MIC in data set [1] worked out at 0.13 µg/mL (≈ 0.283 µM); in data set [2] (setting [4]) it was 0.25 µg/mL (≈ 0.544 µM); in data set [2] (setting [5]) it was 0.25 µg/mL (≈ 0.544 µM). In data set [3], this molecule came in with a Cytoxicity of 19 µM.

The values are drawn from patent US8173636B2, “Hydroxylthienoquinolones and related compounds as anti-infective agents” (Achillion Pharmaceuticals, Inc., priority 2009, dated 2012).
